From PubChem BioAssay (NCI)
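GI50 = concentration required for 50% inhibition of growth. TGI: total growth inhibition.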

Assays:
Experiment in all cases: growth of human tumour cells (NCI), 384-well format
786-0 renal = tested on: 786-0 renal
A498 renal = tested on: A498 renal
A549 NSCLC = tested on: A549 NSCLC
ACHN renal = tested on: ACHN renal
BT-549 breast = tested on: BT-549 breast
CAKI-1 renal = tested on: CAKI-1 renal
CCRF-CEM leukemia = tested on: CCRF-CEM leukemia
COLO 205 colon = tested on: COLO 205 colon
DU-145 prostate = tested on: DU-145 prostate
EKVX NSCLC = tested on: EKVX NSCLC
HCT-116 colon = tested on: HCT-116 colon
HCT-15 colon = tested on: HCT-15 colon
HL-60(TB) leukemia = tested on: HL-60(TB) leukemia
HOP-62 NSCLC = tested on: HOP-62 NSCLC
HOP-92 NSCLC = tested on: HOP-92 NSCLC
HS 578T breast = tested on: HS 578T breast
HT29 colon = tested on: HT29 colon
IGROV1 ovarian = tested on: IGROV1 ovarian
KM12 colon = tested on: KM12 colon
LOX IMVI melanoma = tested on: LOX IMVI melanoma
M14 melanoma = tested on: M14 melanoma
MALME-3M melanoma = tested on: MALME-3M melanoma
MCF7 breast = tested on: MCF7 breast
MDA-MB-231 breast = tested on: MDA-MB-231 breast
MDA-MB-435 melanoma = tested on: MDA-MB-435 melanoma
MDA-MB-468 breast = tested on: MDA-MB-468 breast
MOLT-4 leukemia = tested on: MOLT-4 leukemia
NCI-H226 lung = tested on: NCI-H226 lung
NCI-H23 lung = tested on: NCI-H23 lung
NCI-H322M lung = tested on: NCI-H322M lung
NCI-H460 NSCLC = tested on: NCI-H460 NSCLC
NCI-H522 lung = tested on: NCI-H522 lung
NCI/ADR-RES ovarian = tested on: NCI/ADR-RES ovarian
OVCAR-3 ovarian = tested on: OVCAR-3 ovarian
OVCAR-4 ovarian = tested on: OVCAR-4 ovarian
OVCAR-5 ovarian = tested on: OVCAR-5 ovarian
OVCAR-8 ovarian = tested on: OVCAR-8 ovarian
PC-3 prostate = tested on: PC-3 prostate
RPMI-8226 leukemia = tested on: RPMI-8226 leukemia
RXF 393 renal = tested on: RXF 393 renal
SF-268 CNS = tested on: SF-268 CNS
SF-295 CNS = tested on: SF-295 CNS
SF-539 CNS = tested on: SF-539 CNS
SK-MEL-28 melanoma = tested on: SK-MEL-28 melanoma
SK-MEL-5 melanoma = tested on: SK-MEL-5 melanoma
SK-OV-3 ovarian = tested on: SK-OV-3 ovarian
SN12C renal = tested on: SN12C renal
SNB-19 CNS = tested on: SNB-19 CNS
SNB-75 CNS = tested on: SNB-75 CNS
SR leukemia = tested on: SR leukemia
SW-620 colon = tested on: SW-620 colon
T-47D breast = tested on: T-47D breast
TK-10 renal = tested on: TK-10 renal
U251 glioblastoma = tested on: U251 glioblastoma
UACC-257 melanoma = tested on: UACC-257 melanoma
UACC-62 melanoma = tested on: UACC-62 melanoma
UO-31 renal = tested on: UO-31 renal

SMILES: COc1cc(N2CCC(N3CCN(C)CC3)CC2)ccc1Nc1ncc(Cl)c(Nc2ccccc2P(C)(C)=O)n1
- GI50 (786-0 renal): 3.22 µM
- TGI (786-0 renal): > 43.8 µM
- GI50 (A498 renal): 2.32 µM
- TGI (A498 renal): 6.1 µM
- GI50 (A549 NSCLC): 2.1 µM
- TGI (A549 NSCLC): > 23.4 µM
- GI50 (ACHN renal): 3.21 µM
- TGI (ACHN renal): > 43.9 µM
- GI50 (BT-549 breast): 2.28 µM
- TGI (BT-549 breast): 5.08 µM
- GI50 (CAKI-1 renal): 2.38 µM
- TGI (CAKI-1 renal): 6.28 µM
- GI50 (CCRF-CEM leukemia): 3.45 µM
- TGI (CCRF-CEM leukemia): 9.7 µM
- GI50 (COLO 205 colon): 1.65 µM
- TGI (COLO 205 colon): 4 µM
- GI50 (DU-145 prostate): 2.5 µM
- TGI (DU-145 prostate): 10.5 µM
- GI50 (EKVX NSCLC): 1.46 µM
- TGI (EKVX NSCLC): 3.48 µM
- GI50 (HCT-116 colon): 2.82 µM
- TGI (HCT-116 colon): > 77 µM
- GI50 (HCT-15 colon): 5.29 µM
- TGI (HCT-15 colon): > 100 µM
- GI50 (HL-60(TB) leukemia): 3.35 µM
- TGI (HL-60(TB) leukemia): > 35.6 µM
- GI50 (HOP-62 NSCLC): 2.33 µM
- TGI (HOP-62 NSCLC): > 50.2 µM
- GI50 (HOP-92 NSCLC): 1.17 µM
- TGI (HOP-92 NSCLC): 3 µM
- GI50 (HS 578T breast): 1.86 µM
- TGI (HS 578T breast): 4.89 µM
- GI50 (HT29 colon): 1.11 µM
- TGI (HT29 colon): > 100 µM
- GI50 (IGROV1 ovarian): 1.18 µM
- TGI (IGROV1 ovarian): 3.7 µM
- GI50 (KM12 colon): 3.74 µM
- TGI (KM12 colon): > 100 µM
- GI50 (LOX IMVI melanoma): 3.07 µM
- TGI (LOX IMVI melanoma): 17.8 µM
- GI50 (M14 melanoma): 3.48 µM
- TGI (M14 melanoma): > 100 µM
- GI50 (MALME-3M melanoma): 3.09 µM
- TGI (MALME-3M melanoma): > 66.9 µM
- GI50 (MCF7 breast): 2.07 µM
- TGI (MCF7 breast): > 100 µM
- GI50 (MDA-MB-231 breast): 2.03 µM
- TGI (MDA-MB-231 breast): 6.47 µM
- GI50 (MDA-MB-435 melanoma): 25.5 µM
- TGI (MDA-MB-435 melanoma): > 100 µM
- GI50 (MDA-MB-468 breast): 2.01 µM
- TGI (MDA-MB-468 breast): 6.18 µM
- GI50 (MOLT-4 leukemia): 1.9 µM
- TGI (MOLT-4 leukemia): 4.1 µM
- GI50 (NCI-H226 lung): 0.49 µM
- TGI (NCI-H226 lung): 2.53 µM
- GI50 (NCI-H23 lung): 1.87 µM
- TGI (NCI-H23 lung): 5.19 µM
- GI50 (NCI-H322M lung): 2.08 µM
- TGI (NCI-H322M lung): 6.39 µM
- GI50 (NCI-H460 NSCLC): 4.35 µM
- TGI (NCI-H460 NSCLC): > 100 µM
- GI50 (NCI-H522 lung): 1.16 µM
- TGI (NCI-H522 lung): 4.17 µM
- GI50 (NCI/ADR-RES ovarian): > 100 µM
- TGI (NCI/ADR-RES ovarian): > 100 µM
- GI50 (OVCAR-3 ovarian): 2.22 µM
- TGI (OVCAR-3 ovarian): > 28.5 µM
- GI50 (OVCAR-4 ovarian): 2.41 µM
- TGI (OVCAR-4 ovarian): 8.64 µM
- GI50 (OVCAR-5 ovarian): 2.39 µM
- TGI (OVCAR-5 ovarian): > 46.9 µM
- GI50 (OVCAR-8 ovarian): 6.55 µM
- TGI (OVCAR-8 ovarian): > 100 µM
- GI50 (PC-3 prostate): 5.55 µM
- TGI (PC-3 prostate): > 100 µM
- GI50 (RPMI-8226 leukemia): 1.77 µM
- TGI (RPMI-8226 leukemia): 5.38 µM
- GI50 (RXF 393 renal): 2.09 µM
- TGI (RXF 393 renal): 4.52 µM
- GI50 (SF-268 CNS): 2.38 µM
- TGI (SF-268 CNS): > 25.7 µM
- GI50 (SF-295 CNS): 2.92 µM
- TGI (SF-295 CNS): > 29.5 µM
- GI50 (SF-539 CNS): 1.97 µM
- TGI (SF-539 CNS): 4.23 µM
- GI50 (SK-MEL-28 melanoma): > 100 µM
- TGI (SK-MEL-28 melanoma): > 100 µM
- GI50 (SK-MEL-5 melanoma): 4.72 µM
- TGI (SK-MEL-5 melanoma): > 100 µM
- GI50 (SK-OV-3 ovarian): 2.45 µM
- TGI (SK-OV-3 ovarian): 5.89 µM
- GI50 (SN12C renal): 2.3 µM
- TGI (SN12C renal): 11.1 µM
- GI50 (SNB-19 CNS): 5.97 µM
- TGI (SNB-19 CNS): > 100 µM
- GI50 (SNB-75 CNS): 2.75 µM
- TGI (SNB-75 CNS): 6.73 µM
- GI50 (SR leukemia): 0.0248 µM
- TGI (SR leukemia): 0.0545 µM
- GI50 (SW-620 colon): 4.95 µM
- TGI (SW-620 colon): > 100 µM
- GI50 (T-47D breast): > 25.8 µM
- TGI (T-47D breast): > 100 µM
- GI50 (TK-10 renal): 3.92 µM
- TGI (TK-10 renal): > 100 µM
- GI50 (U251 glioblastoma): 6.2 µM
- TGI (U251 glioblastoma): > 100 µM
- GI50 (UACC-257 melanoma): > 100 µM
- TGI (UACC-257 melanoma): > 100 µM
- GI50 (UACC-62 melanoma): 3.5 µM
- TGI (UACC-62 melanoma): > 100 µM
- GI50 (UO-31 renal): 4.2 µM
- TGI (UO-31 renal): > 62 µM
